In the NIST ThermoML archive (doi:10.1016/j.jct.2013.08.021):
± gives the expanded uncertainty stated by the source.

How the values were obtained:
[1] = refractive index (Na D-line) (dimensionless); xn = mol fraction of the nth substance listed; conditions: 101 kPa, Liquid, Standard Abbe refractometry
[2] = xn = mol fraction of the nth substance listed; conditions: 101 kPa, Liquid; for speed of sound: Sing-around technique in a fixed-path interferometer; for mass density: Vibrating tube method

SMILES: CCC[N+]1(C)CCCC1.O=S(=O)([N-]S(=O)(=O)C(F)(F)F)C(F)(F)F + CCCO
- refractive index ([1]; 298.15 K, x2 = 0): 1.42064 ± 0.00037
- refractive index ([1]; 298.15 K, x2 = 0.0938): 1.41963 ± 0.00036
- refractive index ([1]; 298.15 K, x2 = 0.1942): 1.41841 ± 0.00035
- refractive index ([1]; 298.15 K, x2 = 0.3092): 1.41669 ± 0.00034
- refractive index ([1]; 298.15 K, x2 = 0.3925): 1.41523 ± 0.00034
- refractive index ([1]; 298.15 K, x2 = 0.5031): 1.41287 ± 0.00033
- refractive index ([1]; 298.15 K, x2 = 0.6035): 1.41013 ± 0.00032
- refractive index ([1]; 298.15 K, x2 = 0.6084): 1.40996 ± 0.00032
- refractive index ([1]; 298.15 K, x2 = 0.6973): 1.40685 ± 0.00032
- refractive index ([1]; 298.15 K, x2 = 0.8048): 1.40163 ± 0.00031
- refractive index ([1]; 298.15 K, x2 = 0.8994): 1.39494 ± 0.00031
- refractive index ([1]; 298.15 K, x2 = 0.9465): 1.39023 ± 0.00031
- refractive index ([1]; 303.15 K, x2 = 0): 1.41926 ± 0.00037
- refractive index ([1]; 303.15 K, x2 = 0.0938): 1.41825 ± 0.00036
- refractive index ([1]; 303.15 K, x2 = 0.1942): 1.41693 ± 0.00035
- refractive index ([1]; 303.15 K, x2 = 0.3092): 1.41521 ± 0.00034
- refractive index ([1]; 303.15 K, x2 = 0.3925): 1.41377 ± 0.00034
- refractive index ([1]; 303.15 K, x2 = 0.5031): 1.41135 ± 0.00033
- refractive index ([1]; 303.15 K, x2 = 0.6035): 1.40858 ± 0.00032
- refractive index ([1]; 303.15 K, x2 = 0.6084): 1.40837 ± 0.00032
- refractive index ([1]; 303.15 K, x2 = 0.6973): 1.40519 ± 0.00032
- refractive index ([1]; 303.15 K, x2 = 0.8048): 1.40019 ± 0.00032
- refractive index ([1]; 303.15 K, x2 = 0.8994): 1.39356 ± 0.00031
- refractive index ([1]; 303.15 K, x2 = 0.9465): 1.38843 ± 0.00031
- refractive index ([1]; 308.15 K, x2 = 0): 1.41782 ± 0.00037
- refractive index ([1]; 308.15 K, x2 = 0.0938): 1.41678 ± 0.00036
- refractive index ([1]; 308.15 K, x2 = 0.1942): 1.4155 ± 0.00035
- refractive index ([1]; 308.15 K, x2 = 0.3092): 1.41375 ± 0.00034
- refractive index ([1]; 308.15 K, x2 = 0.3925): 1.41227 ± 0.00034
- refractive index ([1]; 308.15 K, x2 = 0.5031): 1.40984 ± 0.00033
- refractive index ([1]; 308.15 K, x2 = 0.6035): 1.40703 ± 0.00032
- refractive index ([1]; 308.15 K, x2 = 0.6084): 1.40681 ± 0.00032
- refractive index ([1]; 308.15 K, x2 = 0.6973): 1.40364 ± 0.00032
- refractive index ([1]; 308.15 K, x2 = 0.8048): 1.39885 ± 0.00032
- refractive index ([1]; 308.15 K, x2 = 0.8994): 1.39205 ± 0.00031
- refractive index ([1]; 308.15 K, x2 = 0.9465): 1.38653 ± 0.00031
- speed of sound ([2]; 298.15 K, x2 = 0): 1270.6 ± 1.5 m/s
- speed of sound ([2]; 298.15 K, x2 = 0.0938): 1265.5 ± 1.5 m/s
- speed of sound ([2]; 298.15 K, x2 = 0.1942): 1259.2 ± 1.4 m/s
- speed of sound ([2]; 298.15 K, x2 = 0.3092): 1250.8 ± 1.4 m/s
- speed of sound ([2]; 298.15 K, x2 = 0.3925): 1243.8 ± 1.3 m/s
- speed of sound ([2]; 298.15 K, x2 = 0.5031): 1233 ± 1.3 m/s
- speed of sound ([2]; 298.15 K, x2 = 0.6035): 1221.4 ± 1.2 m/s
- speed of sound ([2]; 298.15 K, x2 = 0.6084): 1220.8 ± 1.2 m/s
- speed of sound ([2]; 298.15 K, x2 = 0.6973): 1209.2 ± 1.2 m/s
- speed of sound ([2]; 298.15 K, x2 = 0.8048): 1194.6 ± 1.2 m/s
- speed of sound ([2]; 298.15 K, x2 = 0.8994): 1187.7 ± 1.2 m/s
- speed of sound ([2]; 298.15 K, x2 = 0.9465): 1192 ± 1.2 m/s
- mass density ([2]; 298.15 K, x2 = 0): 1427.86 ± 0.6 kg/m3
- mass density ([2]; 298.15 K, x2 = 0.0938): 1411.16 ± 0.52 kg/m3
- mass density ([2]; 298.15 K, x2 = 0.1942): 1390.36 ± 0.45 kg/m3
- mass density ([2]; 298.15 K, x2 = 0.3092): 1361.8 ± 0.37 kg/m3
- mass density ([2]; 298.15 K, x2 = 0.3925): 1336.96 ± 0.32 kg/m3
- mass density ([2]; 298.15 K, x2 = 0.5031): 1296.59 ± 0.26 kg/m3
- mass density ([2]; 298.15 K, x2 = 0.6035): 1249.57 ± 0.23 kg/m3
- mass density ([2]; 298.15 K, x2 = 0.6084): 1246.93 ± 0.23 kg/m3
- mass density ([2]; 298.15 K, x2 = 0.6973): 1192.26 ± 0.22 kg/m3
- mass density ([2]; 298.15 K, x2 = 0.8048): 1102.79 ± 0.24 kg/m3
- mass density ([2]; 298.15 K, x2 = 0.8994): 988.76 ± 0.29 kg/m3
- mass density ([2]; 298.15 K, x2 = 0.9465): 912.36 ± 0.39 kg/m3
- speed of sound ([2]; 303.15 K, x2 = 0): 1259.5 ± 1.5 m/s
- speed of sound ([2]; 303.15 K, x2 = 0.0938): 1254.3 ± 1.5 m/s
- speed of sound ([2]; 303.15 K, x2 = 0.1942): 1248 ± 1.4 m/s
- speed of sound ([2]; 303.15 K, x2 = 0.3092): 1239.4 ± 1.4 m/s
- speed of sound ([2]; 303.15 K, x2 = 0.3925): 1232.2 ± 1.3 m/s
- speed of sound ([2]; 303.15 K, x2 = 0.5031): 1221.2 ± 1.3 m/s
- speed of sound ([2]; 303.15 K, x2 = 0.6035): 1209.3 ± 1.2 m/s
- speed of sound ([2]; 303.15 K, x2 = 0.6084): 1208.7 ± 1.2 m/s
- speed of sound ([2]; 303.15 K, x2 = 0.6973): 1196.7 ± 1.2 m/s
- speed of sound ([2]; 303.15 K, x2 = 0.8048): 1181.5 ± 1.2 m/s
- speed of sound ([2]; 303.15 K, x2 = 0.8994): 1173.4 ± 1.2 m/s
- speed of sound ([2]; 303.15 K, x2 = 0.9465): 1176.5 ± 1.2 m/s
- mass density ([2]; 303.15 K, x2 = 0): 1423.26 ± 0.6 kg/m3
- mass density ([2]; 303.15 K, x2 = 0.0938): 1406.64 ± 0.52 kg/m3
- mass density ([2]; 303.15 K, x2 = 0.1942): 1385.82 ± 0.44 kg/m3
- mass density ([2]; 303.15 K, x2 = 0.3092): 1357.24 ± 0.36 kg/m3
- mass density ([2]; 303.15 K, x2 = 0.3925): 1332.37 ± 0.31 kg/m3
- mass density ([2]; 303.15 K, x2 = 0.5031): 1291.99 ± 0.26 kg/m3
- mass density ([2]; 303.15 K, x2 = 0.6035): 1244.97 ± 0.23 kg/m3
- mass density ([2]; 303.15 K, x2 = 0.6084): 1242.32 ± 0.23 kg/m3
- mass density ([2]; 303.15 K, x2 = 0.6973): 1187.68 ± 0.22 kg/m3
- mass density ([2]; 303.15 K, x2 = 0.8048): 1098.29 ± 0.24 kg/m3
- mass density ([2]; 303.15 K, x2 = 0.8994): 984.42 ± 0.28 kg/m3
- mass density ([2]; 303.15 K, x2 = 0.9465): 908.13 ± 0.4 kg/m3
- speed of sound ([2]; 308.15 K, x2 = 0): 1248.6 ± 1.5 m/s
- speed of sound ([2]; 308.15 K, x2 = 0.0938): 1243.4 ± 1.5 m/s
- speed of sound ([2]; 308.15 K, x2 = 0.1942): 1236.8 ± 1.4 m/s
- speed of sound ([2]; 308.15 K, x2 = 0.3092): 1228.1 ± 1.4 m/s
- speed of sound ([2]; 308.15 K, x2 = 0.3925): 1220.8 ± 1.3 m/s
- speed of sound ([2]; 308.15 K, x2 = 0.5031): 1209.4 ± 1.3 m/s
- speed of sound ([2]; 308.15 K, x2 = 0.6035): 1197.2 ± 1.2 m/s
- speed of sound ([2]; 308.15 K, x2 = 0.6084): 1196.6 ± 1.2 m/s
- speed of sound ([2]; 308.15 K, x2 = 0.6973): 1184.2 ± 1.2 m/s
- speed of sound ([2]; 308.15 K, x2 = 0.8048): 1168.3 ± 1.2 m/s
- speed of sound ([2]; 308.15 K, x2 = 0.8994): 1159.1 ± 1.2 m/s
- speed of sound ([2]; 308.15 K, x2 = 0.9465): 1161.2 ± 1.2 m/s
- mass density ([2]; 308.15 K, x2 = 0): 1418.83 ± 0.59 kg/m3
- mass density ([2]; 308.15 K, x2 = 0.0938): 1402.12 ± 0.52 kg/m3
- mass density ([2]; 308.15 K, x2 = 0.1942): 1381.28 ± 0.44 kg/m3
- mass density ([2]; 308.15 K, x2 = 0.3092): 1352.68 ± 0.36 kg/m3
- mass density ([2]; 308.15 K, x2 = 0.3925): 1327.8 ± 0.31 kg/m3
- mass density ([2]; 308.15 K, x2 = 0.5031): 1287.39 ± 0.26 kg/m3
- mass density ([2]; 308.15 K, x2 = 0.6035): 1240.35 ± 0.23 kg/m3
- mass density ([2]; 308.15 K, x2 = 0.6084): 1237.71 ± 0.22 kg/m3
- mass density ([2]; 308.15 K, x2 = 0.6973): 1183.08 ± 0.22 kg/m3
- mass density ([2]; 308.15 K, x2 = 0.8048): 1093.76 ± 0.25 kg/m3
- mass density ([2]; 308.15 K, x2 = 0.8994): 980.03 ± 0.29 kg/m3
- mass density ([2]; 308.15 K, x2 = 0.9465): 903.87 ± 0.4 kg/m3
